Assay results from patent publication US20230150932A1, “COMPOSITIONS FOR STABILIZING AN ISOTHIOCYANATE” (VIO CHEMICALS AG, priority 2020, published 2023).

Assays:
[1] = Stability study by HPLC, storage under Conditions A (bench, 20-25° C.); type: physicochemical; conditions: Conditions A 20-25° C.; for RRT 0.96: impurity; for RRT 0.76: thiourea degradation impurity
Experimental: (§1) The storage conditions studied in the present invention are of three types:
(§2) In all three above types of conditions, the storage media is a simple dark glass vial or round-bottomed flask. Each sample is blown with Argon before securing the cap. No further treatment regarding the atmosphere is performed. The vial is capped and secured by use of a commercially available appropriate means for sealing the cap, e.g. Parafilm. The storage media is not restrictive with respect to the present invention.
(§3) The Sulforaphane formulations were analyzed with HPLC (PDA/UV at 240 nm) using standards for identification and quantification purpose.
(§4) Take 1 mL of H3PO4 into a 1 L volumetric flask containing about 500 mL of water, dilute to the volume with water and mix well/Acetonitrile.
(§5) Transfer accurately about 20 mg of sample in to a 20 mL clean and dry volumetric flask. Dilute to the volume with diluent.
(§6) Sulphoraphane retention time is about 20 mins
(§7) Conditions A: bench (20-25° C.) Conditions B: fridge, 2-8° C. Conditions C: fridge-freezer, (−15) ° C.

[2] = left on bench for 6 months; HPLC
From the text: In order to determine the structure of the major degradation impurity found in the present study (RRT 0.76) a sample of synthetically produced Sulforaphane was left on bench for 6 months.

[3] = Stability study by HPLC, storage under Conditions C (fridge-freezer, -15° C.); type: physicochemical; conditions: Conditions C -15° C.; for RRT 0.96: impurity; for RRT 0.76: thiourea degradation impurity
Experimental: as §1, §2, §3, §4, §5, §6, §7

[4] = diluted in water, heated at 80° C. for 24 hrs; HPLC

What does the source list for `C[S+]([O-])CCCCN=C=S` (stereo not drawn) [Comparative Example 3, 4-(methylsulfinyl)butylisothiocyanate]?
Sulfone ([1]; 1 month): 1.31; Sulforaphane ([1]; 1 month): 36.35; RRT 0.96 ([1]; 1 month): 3.88; RRT 0.76 ([1]; 1 month): 29.16; Sulfone ([1]; 2 months): 0.84; Sulforaphane ([1]; 2 months): 24.51; RRT 0.96 ([1]; 2 months): 3.95; RRT 0.76 ([1]; 2 months): 34.37; Sulfone ([1]; 3 months): 0.78; Sulforaphane ([1]; 3 months): 19.98; RRT 0.96 ([1]; 3 months): 4.11; RRT 0.76 ([1]; 3 months): 38.38; Sulfone ([1]; 7 days): 2.32; Sulforaphane ([1]; 7 days): 65.48; RRT 0.96 ([1]; 7 days): 2.62; RRT 0.76 ([1]; 7 days): 15.87; Sulfone ([1]; 15 days): 1.92; Sulforaphane ([1]; 15 days): 53.28; RRT 0.96 ([1]; 15 days): 3.20; RRT 0.76 ([1]; 15 days): 21.61; Sulfone ([1]; zero time): 3.40; Sulforaphane ([1]; zero time): 94.74; RRT 0.96 ([1]; zero time): 0.15; RRT 0.76 ([1]; zero time): 0.01; percentage of impurity RRT 0.76 [2]: about 74.8%; Sulfone ([3]; 1 month): 3.4; Sulforaphane ([3]; 1 month): 94.27; RRT 0.96 ([3]; 1 month): 0.23; RRT 0.76 ([3]; 1 month): 0.25; Sulfone ([3]; 2 months): 3.42; Sulforaphane ([3]; 2 months): 94.43; RRT 0.96 ([3]; 2 months): 0.25; RRT 0.76 ([3]; 2 months): 0.27; Sulfone ([3]; 3 months): 3.44; Sulforaphane ([3]; 3 months): 94.51; RRT 0.96 ([3]; 3 months): 0.51; RRT 0.76 ([3]; 3 months): 0.23; Sulfone ([3]; 7 days): 3.38; Sulforaphane ([3]; 7 days): 95.21; RRT 0.96 ([3]; 7 days): 0.15; Sulforaphane ([3]; 15 days): 97.23; RRT 0.96 ([3]; 15 days): 0.03; RRT 0.76 ([3]; 15 days): 0.62; Sulfone ([3]; zero time): 3.40; Sulforaphane ([3]; zero time): 94.74; RRT 0.96 ([3]; zero time): 0.15; RRT 0.76 ([3]; zero time): 0.01; impurity RRT 0.76 detected (chromatographic purity) [4]: more than 93%
